Results published in patent publication US11332438B2, “Creatine prodrugs, compositions and methods of use thereof” (Ultragenyx Pharmaceutical Inc., priority 2017, dated 2022).
“Also recorded” adds a separate entry of the source. Like-named read-outs stand apart in the source and are kept apart here.

Columns and labels:
[1] = rcm bond, DCM, 50.0 °C
[2] = Liver microsome stability, mouse; type: in vitro ADME; conditions: liver microsomes, pH 7.4, Table 2A, read-out: Microsome Stability Mouse t1/2
Procedure, shortened: (§1)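 Remaining compound measured by LC/MS after acetonitrile/internal-standard quench at 0–60 min time points (0, 5, 10, 20, 30, 60). Incubations used mouse or human liver microsomes in pH 7.4 potassium phosphate/EDTA buffer with NADPH; a 60-min sample without NADPH served as control.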

[3] = Plasma stability, mouse plasma; type: in vitro ADME; conditions: Table 2A, 37 °C, read-out: Plasma Stability Mouse t1/2
Procedure, shortened: (§2)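 Half-life (min) from LC-MS/MS of acetonitrile-quenched samples taken at t=0, 2, 5, 15, 30 min. Compound dosed at 1 µM final into plasma pre-warmed to 37 °C, pH set to 7.4 where required; incubations at 37 °C.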

[4] = Chemical stability in phosphate buffered saline (PBS); type: physicochemical; conditions: Table 2A, 50 μM prodrug
Procedure, shortened: (§3)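 Incubations used 50 μM compound at 37 °C in phosphate buffered saline, fasted simulated intestinal fluid without pancreatin, or fasted simulated gastric fluid without pepsin.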

[5] = Chemical stability in simulated gastric fluid (SGF) without pepsin; type: physicochemical; conditions: Table 2A, 50 μM prodrug
Procedure, shortened: as §3

[6] = Plasma stability, human plasma; type: in vitro ADME; conditions: Table 2A, 37 °C, read-out: Plasma Stability Human t1/2
Procedure, shortened: as §2

[7] = Liver microsome stability, human; type: in vitro ADME; conditions: liver microsomes, pH 7.4, Table 2A, read-out: Microsome Stability Human t1/2
Procedure, shortened: as §1

ARPE-19 cells = experiment: Creatine prodrug uptake and d3-creatine release in ARPE-19 cells (Table 4A); type: cell-based, human; conditions: 50 μM, 6 h, cytosol fraction, corrected for total protein
Experimental: At the end of the incubation, supernatant will be collected from each well to assess prodrug recovery. Cells are then washed 3× with PBS. Plates, prodrugs in supernatant, prodrugs in serum-free medium are stored at −80° C. until harvest (within 5 days). On the day of extraction, 130 uL of lysis buffer (10 mM Tris pH 7.4) with EDTA-free protease inhibitors is added to each well and cells are removed using a cell scraper. Lysates are further homogenized using a handheld pestle and then centrifuged at 16,000 g, […], for 10 minutes to collect cytosol fraction. Pellets will be stored at −80° C. until further analysis. A 4× volume of stop solution (80% ACN/20% water) will be added to the cytosol fraction, supernatant and medium. Samples will be centrifuged at 15,890 g (13,000 rpm) at 4° C. for 10 mins. Supernatant will be collected and stored at −80° C. within 5 days prior to LC-MS/MS analysis. Dosing solutions for each prodrug (10 μM) will be assayed to verify concentration. Cells alone with vehicle will serve as controls to assess background signal for LC-MS/MS. Two independent runs of experiment will be conducted.
Nine fatty acid amide creatine prodrugs were tested in human ARPE-19 cells to assess prodrug uptake and d3-Cr release inside the cells. 50 μM of prodrug was incubated in culture medium with the cells and the cells were harvested at 6 h. Quantitation of prodrugs, d3-Cr (d3-creatine) and d3-Cm (d3-creatinine) in the cytosol fraction was corrected for total protein concentration.

[8] = Prodrug cleavage in human brain homogenates (HBH): d3-Cr release and d3-Crn cyclization; type: in vitro ADME; conditions: for Prodrug Cleavage Human BH d3-Crn release / Prodrug Cleavage Human BH net d3-Cr release: 200 μM prodrug, 3 h, % of nominal input; for Prodrug Cleavage Human BH net d3-Cr release: negative control subtracted
Experimental: (§4) For assessment of the ability of prodrugs to release creatine, and to release creatine preferentially to unwanted cyclization to creatinine, d3-labeled (deuterium labeled methyl group) prodrugs are incubated with brain homogenates (e.g., mouse, human) specially prepared to preserve FAAH activity or with rFAAH for direct cleavage study. The use of d3-labelled prodrugs is essential in order to distinguish prodrug-derived creatine (d3-creatine) from high concentrations of endogenous (non-labeled) creatine. […] Prodrugs are tested at final concentrations of 20 μM and 200 μM. Approximately 3-4 mg of homogenate is used for each reaction. Co-factor (NADPH) is included at a final concentration of 1 mM. FAAH activity is confirmed by conversion of 7-amino-4-methyl Coumarin-Arachidonamide to 7-amino-4-methyl Coumarin by fluorescent assay. Negative controls include incubations without brain homogenate/rFAAH (but with NADPH) or 65° C. heat inactivated brain homogenate/rFAAH to assess non-enzymatic prodrug cleavage under the conditions of the assay and FAAH inhibitor […] at the concentration of 1 μM. Prodrug incubations are prepared by addition of 8 μL of prodrug stock solution (500 or 5000 μM in DMSO or DMSO/methanol) to assay buffered, followed by addition of brain homogenate/rFAAH. […] The samples are centrifuged at 15890×g for 10 minutes at 4° C., followed by transfer of the supernatants for storage at −20° C. pending LC-MS/MS analysis. Sample supernatants are analyzed by LC-MS/MS for determination of d3-prodrug, d3-creatine and d3-creatinine levels.
(§5) Deuterated creatine prodrugs were tested in 3 different in vitro assays to assess d3-creatine (d3-Cr) release and cyclization to form d3-creatinine (d3-Crn). These assays were 1) direct cleavage with recombinant human FAAH enzyme (rFAAH), 2) cleavage in mouse brain homogenates (MBH), and 3) human brain homogenates (HBH).
(§6) Creatine prodrug cleavage efficiency was determined by percentage of net d3-Cr release in μM (positive reaction subtracted from negative control of no brain homogenate/rFAAH or inactivated brain homogenate/rFAAH) over nominal input concentration of 200 μM prodrug at 3 h. Propensity for creatinine cyclization was determined by percentage of d3-Crn generated in μM in positive reaction over nominal input concentration of 200 μM prodrug at 3 h.

[9] = biological target: T1, recombinant human FAAH enzyme (rFAAH) (Homo sapiens, UniProt O00519); experiment: Direct prodrug cleavage with recombinant human FAAH enzyme (rFAAH): d3-Cr release and d3-Crn cyclization; type: biochemical; conditions: 200 μM prodrug, 3 h; result in words
T1 sequence (O00519 1-579): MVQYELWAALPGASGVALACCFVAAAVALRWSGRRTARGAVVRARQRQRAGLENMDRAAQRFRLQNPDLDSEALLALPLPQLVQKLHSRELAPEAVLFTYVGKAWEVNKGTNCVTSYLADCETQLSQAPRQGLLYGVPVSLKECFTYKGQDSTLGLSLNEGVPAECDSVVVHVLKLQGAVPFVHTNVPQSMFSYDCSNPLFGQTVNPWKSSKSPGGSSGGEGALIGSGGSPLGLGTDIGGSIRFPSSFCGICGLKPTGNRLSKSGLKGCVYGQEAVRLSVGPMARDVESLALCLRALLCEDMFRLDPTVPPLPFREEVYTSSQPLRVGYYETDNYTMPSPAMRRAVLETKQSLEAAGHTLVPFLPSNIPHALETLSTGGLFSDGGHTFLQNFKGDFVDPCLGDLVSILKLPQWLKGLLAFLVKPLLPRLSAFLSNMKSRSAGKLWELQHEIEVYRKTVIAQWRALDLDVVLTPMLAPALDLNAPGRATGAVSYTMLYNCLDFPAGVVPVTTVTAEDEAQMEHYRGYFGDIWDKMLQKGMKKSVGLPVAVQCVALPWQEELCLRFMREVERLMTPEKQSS
Experimental: as §4, §5, §6

[10] = In vivo IV dosing in CrT KO mice: prodrug, d3-Cr and d3-Crn in brain (Table 5)
Experimental: A creatine prodrug is administered as an intravenous bolus injection to groups of three to six adult male CD1 mice at an appropriate creatine prodrug dose equivalent per kg body weight. Animals are conscious at the time of the experiment. Blood samples (0.3 mL) are obtained via a jugular vein cannula at intervals over 8 hours following IV dosing. Blood is processed into plasma, then the plasmais immediately frozen at −80° C. until analyzed by LC-MS/MS. Samples may also be taken form the CSF or other appropriate biological fluid. Brains were collected and flash frozen immediately in liquid nitrogen. Brains were homogenized in 100 mM KPI buffer with a cocktail of anti-proteases on the same day as the sample preparation required for LC-MS/MS analysis.
Several prodrugs with either free COOH group and ester linkage and macrocycles were selected for IV dosing in animal study to assess PK and d3-Cr release in brain in vivo. Prodrugs were IV dosed in CrT KO mice at 10, 15, or 25 mg/kg in animal studies. Mouse brain homogenates (MBH) were prepared from brains collected from mice after dosing. Levels of prodrug, d3-Cr and d3-Crn were quantified in brain and expressed in brain concentration (for macrocycle prodrugs) or AUC (for linear prodrugs) over time. Very few prodrugs were detected in MBH.

[11] = in vitro cleavage assays (Table 3A)

Structure (SMILES)	half-life at 10 μM [2] [min]	half-life [3] [min]	Chemical Stability PBS % T0 at 2 hours at 37 °C. [4] [%]	Chemical Stability SGF, no enzyme % T0 at 2 hours at 37 °C. [5] [%]	half-life [6] [min]	half-life at 10 μM [7] [min]	prodrug, Cellular Uptake (ARPE-19 cells)	also measured
CC1CC=CCCCCCCCC(=O)NC(=NC(=O)OC(C)(C)C)N(C)CC(=O)O1 (centres unmarked)								ring closure, isolated yield ([1]; from [2H]C([2H])([2H])N(CC(=O)OC(C)CC=C)C(=NC(=O)OC(C)(C)C)NC(=O)CCCCCCCC=C, 18-membered ring, Grubbs II, 2.0 h, 2 steps): 53%
[2H]C([2H])([2H])N1CC(=O)OCCCC/C=C\CCCCCCCC(=O)N/C1=N/C(=O)OC(C)(C)C								ring closure, isolated yield ([1]; from [2H]C([2H])([2H])N(CC(=O)OCCCCC=C)C(=NC(=O)OC(C)(C)C)NC(=O)CCCCCCCC=C, 20-membered ring, Grubbs II): 90%
[2H]C([2H])([2H])N(CC(=O)[O-])C(=N)NC(=O)c1cccnc1.[Na+] [Compound 20]	> 145	> 180	101	78	> 180	> 145	BQL	d3-Cr, Cellular Uptake (ARPE-19 cells): BQL; d3-Crn, Cellular Uptake (ARPE-19 cells): BQL
[2H]C([2H])([2H])N(CC(=O)O)C(=N)NC(=O)CCCCCCCCCCC [Compound 30]	> 145	162	145	62	> 180	94	29.2 nmol/mg protien	
[2H]C([2H])([2H])N1CC(=O)OCCCCCCCC/C=C/CCCCCCCC(=O)N/C1=N/C(=O)OCc1ccccc1								ring closure, isolated yield ([1]; from [2H]C([2H])([2H])N(CC(=O)OCCCCCCCCC=C)/C(=N\C(=O)OCc1ccccc1)NC(=O)CCCCCCCC=C, 24-membered ring, Grubbs II (10 mol%), 1.79 mM, 2.0 h): 78%
Cl.[2H]C([2H])([2H])N(CC(=O)OC(C)C)C(=N)NC(=O)CCCCCCC/C=C\CCCCCCCC [Compound 45]			54	102			BQL	Prodrug Cleavage Human BH d3-Crn release [8]: 22.0%; Prodrug Cleavage Human BH net d3-Cr release [8]: 0.4%; Prodrug Cleavage rFAAH d3-Crn release (yes/no) [9]: yes; Prodrug Cleavage rFAAH net d3-Cr release (yes/no) [9]: no; d3-Cr, Cellular Uptake (ARPE-19 cells): 0.74 nmol/mg protien; d3-Crn, Cellular Uptake (ARPE-19 cells): 1.03 nmol/mg protien
Cl.[2H]C([2H])([2H])N(CC(=O)OC(C)C)C(=N)NC(=O)CCCCCCCCCC [Compound 12-HCl]			99	117				Prodrug Cleavage Human BH d3-Crn release [8]: 265.7%; Prodrug Cleavage Human BH net d3-Cr release [8]: 2.9%; d3-Cr release in vitro (in words) [8, 11]: small amount of d3-Cr; d3-Crn (creatinine) cyclization in vitro (in words) [8, 11]: predominantly cyclized into creatinine; also recorded: predominantly creatinine cyclization; d3-Cr/d3-Crn release ratio in vivo (in words) ([10]; brain, CrT KO mice): favorable d3-Cr/d3-Crn ratio
Cl.[2H]C([2H])([2H])N(CC(=O)OCCCCCCC)C(=N)NC(=O)CCCCCCCCCC [Compound 5, Heptyl N-(methyl-d3)-N—(N-undecanoylcarbamimidoyl)glycinate Hydrochloride]	< 5	< 5	23	73	5	< 5	BQL	AUClast prodrug in the brain ([10]; IV 10 mg/kg, CrT KO mouse brain, BQL prodrug = 41.2 ng/mL): BQL
[2H]C([2H])([2H])N(CC(=O)[O-])C(=N)NC(=O)CCCCCCC/C=C\CCCCCCCC.[Na+] [Compound 1, Sodium N-(methyl-d3)-N—(N-oleoylcarbamimidoyl)glycinate]	83	> 180	76	74	> 180	133	24.8 nmol/mg protien	
